Source: article PMC3854790, “CRIS—A Novel cAMP-Binding Protein Controlling Spermiogenesis and the Development of Flagellar Bending” (PLoS Genetics, 2013)

Molecular target: T1, mCRIS CNBD (cit-mCNBD-cer FRET sensor) (Mus musculus, UniProt Q9D5U8)
T1 construct: gene Cnbd2; CNBD, aa 202-353 of mCRIS cDNA from mouse testis; citrine at N terminus, cerulean-His10 at C terminus (also printed cer-mCNBD-cit); expressed in CHO cells
Assay: intramolecular FRET (cerulean/citrine ratio), live-cell imaging
Type: cell-based
Conditions: 3 mM 8-Br-cAMP perfused on CHO cells, 10 min

T1 sequence (Q9D5U8 202-353): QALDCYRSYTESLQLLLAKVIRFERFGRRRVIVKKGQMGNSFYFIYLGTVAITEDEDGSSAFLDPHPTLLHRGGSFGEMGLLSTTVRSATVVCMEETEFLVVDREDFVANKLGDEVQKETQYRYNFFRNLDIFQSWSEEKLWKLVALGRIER

SMILES: Nc1ncnc2c1nc(Br)n2[C@@H]1O[C@@H]2COP(=O)(O)O[C@H]2[C@H]1O [8-Br-cAMP]
- change in FRET (normalized emission ratio): Addition of 8-Br-cAMP, a membrane-permeable cAMP analogue, or NKH477, an activator of adenylyl cyclases, changed
